Key:
[1] = test system: HT-1080 fibrosarcoma cells (WT1-expressing); assay: Cell count 72 hours after introducing vector-based WT1 siRNAs, HT-1080; settings: HT-1080, cell count 72 hours after introduction, versus mock vector
Experimental: (§1) Treatments with the siRNA vectors and mock vector were carried out in the following steps. Cells were plated onto a 6-well plate, and on the next day, the WT1-siRNA expression vectors and mock vector were transiently expressed by lipofection using FuGENE 6 (Roche). Three days later, the cells were trypsinized and the number of cells was counted. The WT1 protein expression level in these cells was analyzed by Western blotting.
To analyze the effect of vector-based WT1 siRNAs on cell growth, the number of cells was counted 72 hours after introducing the six types of vector-based WT1 siRNAs, loop1-WRI-4, WRI-4, WRI-4m, WRI-16m, WRI-17m, and WRI-18m, and a mixture of WRI-4m, WRI-16m, WRI-17m, and WRI-18m, respectively. […] Among the WT1 siRNAs, WRI-4m suppressed growth by 90% or more. In contrast, in PC-14 lung cancer cells (a non-WT1-expressing cell line), cell growth was not suppressed by any of the six vector-based WT1 siRNA treatments (FIG. 6).

[2] = test system: AZ-521 gastric cancer cells; assay: Cell count 72 hours after vector introduction, AZ-521; assay type: cell-based; settings: AZ-521, cell count 72 hours later
Experimental: as §1
(§2) Furthermore, to investigate whether two types of vector-based WT1 siRNAs (WRI-4m and WRI-16m) can suppress the growth of various WT1-expressing cancer cells, these vectors were introduced into three WT1-expressing cell lines: AZ-521 gastric cancer cells, SW620 colon cancer cells, and HL-60 leukemia cells, and the number of cells were counted 72 hours later.

[3] = test system: SW620 colon cancer cells; assay: Cell count 72 hours after vector introduction, SW620; assay type: cell-based; settings: SW620, cell count 72 hours later
Experimental: as §1, §2

[4] = test system: HL-60 leukemia cells; assay: Cell count 72 hours after vector introduction, HL-60; assay type: cell-based; settings: HL-60, cell count 72 hours later
Experimental: as §1, §2

[5] = test system: HT-1080 cells; assay: Apoptosis by Annexin V-FITC/PI flow cytometry, HT-1080; assay type: cell-based
Experimental: (§3) To elucidate the mechanism of cancer cell growth suppression by vector-based WT1 siRNAs, induction of apoptosis in cells subjected to a vector-based WT1 siRNA treatment was analyzed. Two WT1-expressing cell lines HT-1080 and AZ-521, and a non-WT1-expressing cell line PC-14 were subjected to the WRI-4m treatment, double-stained with AnnexinV-FITC and PI, and then analyzed by flow cytometry.
(§4) Apoptosis analysis by flow cytometry was carried out by the following steps. First, to detect apoptosed cells, 1.0×10^5 cells were washed with PBS, and then the cells were stained by reaction with Annexin V-FITC and PI at room temperature for 15 minutes, using the MEBCYTO Apoptosis kit (Medical and Biological Laboratories Co., Ltd, Nagoya, Japan). Upon analysis of these cells using a FACScan flowcytometer (Becton Dickinson, San Jose, Calif.), Annexin V-FITC-positive cells were defined as apoptosed cells.

[6] = test system: AZ-521 cells; assay: Apoptosis by Annexin V-FITC/PI flow cytometry, AZ-521; assay type: cell-based
Experimental: as §3, §4

[7] = test system: PC-14; assay: Apoptosis by Annexin V-FITC/PI flow cytometry, PC-14; assay type: cell-based; settings: PC-14 (non-WT1-expressing)
Experimental: as §3, §4

[8] = test system: HT-1080 cells; assay: Mitochondrial membrane potential by MitoLight staining and flow cytometry, HT-1080; assay type: cell-based; settings: HT-1080, 72 hours, compared to mock vector treatment
Experimental: (§5) To elucidate whether the vector-based WT1 siRNA-induced apoptosis takes place through a mitochondria-mediated pathway, the WT1-expressing cell line HT-1080 cells and the non-WT1-expressing cell line PC14 cells were both treated with WRI-4m and a mock vector respectively. 72 hours later, the state of mitochondrial membrane potential was analyzed by MitoLight staining followed by flow cytometry.
(§6) The change in mitochondrial membrane potential (ΔΨm) due to apoptosis induction was analyzed using the MitoLight apoptosis detection kit (Chemicon). Cells after apoptosis induction were incubated at 37° C. in a buffer containing MitoLight (a mitochondria staining dye) for 15 minutes, and then analyzed on a FACScan FL2 channel.

[9] = test system: PC-14; assay: Mitochondrial membrane potential by MitoLight staining and flow cytometry, PC-14; assay type: cell-based; settings: PC-14 (non-WT1-expressing), 72 hours
Experimental: as §5, §6

[10] = test system: cancer cells; assay: Release of cytochrome c from mitochondria into cytoplasm after combined treatment (Western blot); assay type: cell-based
Experimental: Western blot analysis was carried out by the following steps. Cells transiently expressing the siRNA expression vectors and mock vector were dissolved in an SDS sample buffer, and proteins were separated by SDS-PAGE and then blotted onto a PVDF membrane. Color was developed using a BCIP-NBT kit with the anti-WT1 antibody C-19 (Santa Cruz Biotechnology), an anti-cytochrome C antibody (Pharmingen), or an anti-GAPDH antibody (Chemicon) as a primary antibody, and an ALP-conjugated anti-rabbit or anti-mouse antibody (Santa Cruz Biotechnology) as a second antibody.
Combined use of an siRNA vector with a chemotherapeutic agent or a death ligand, was carried out by the following steps. […]
To reveal that enhancement of cell growth suppression due to combined use of vector-based WT1-siRNA with an anticancer agent is caused by enhancing the induction of mitochondria-mediated apoptosis, the release of cytochrome c from mitochondria into cytoplasm which takes place after combined treatment of vector-based WT1-siRNA with doxorubicin or etoposide was analyzed.
The release of cytochrome c from mitochondria into cytoplasm was analyzed by the following steps. […]

[11] = test system: cancer cells; assay: Mitochondrial membrane potential after combined treatment (flow cytometry); assay type: cell-based; settings: compared to anticancer agent alone
Experimental: as §6
Combined use of an siRNA vector with a chemotherapeutic agent or a death ligand, was carried out by the following steps. Cells were plated onto a 6-well plate, and on the next day, the vector-based WT1 siRNA and mock vector were transiently expressed by lipofection using FuGENE 6 (Roche), and 48 hours later, the cells were treated for another 24 hours with 25 μM etoposide (WAKO), 0.2 μM doxorubicin (Sigma), or […] of TNF-related apoptosis-inducing ligand (TRAIL) (Peprotech).
Mitochondrial membrane potential after combined treatment using vector-based WT1 siRNA with doxorubicin, etoposide, and TRAIL, respectively, was evaluated by flow cytometry.

**Q.** For “WRI-4m: siRNA vector, loop 2, target positions 1150-1179 (SEQ ID NO: 9), mutated sense strand SEQ ID NO: 11 (sense AGCTCCAGCTTAGTGAAGTGGGTAGGAGGG)”, which growth suppression [1] is on record?
**A.** ≥ 90%

**Q.** What about the “growth compared to mock vector treatment” value [2] of the same substance?
**A.** significantly suppressed

**Q.** And the “growth compared to mock vector treatment” value [3]?
**A.** significantly suppressed

**Q.** And the “growth compared to mock vector treatment” value [4]?
**A.** significantly suppressed

**Q.** What about the “apoptosis induced (Annexin V-FITC-positive cells)” value [5] of the same substance?
**A.** 71.1%

**Q.** What about the “apoptosis induced (Annexin V-FITC-positive cells)” value [6] of the same substance?
**A.** 40.6%

**Q.** What about the apoptosis induction [7] of the same substance?
**A.** did not induce apoptosis

**Q.** And the “loss of the mitochondrial membrane potential” value [8]?
**A.** significantly induced

**Q.** And the “loss of the mitochondrial membrane potential” value [9]?
**A.** did not induce

**Q.** And the “release of cytochrome c into cytoplasm” value ([10]; combined treatment with doxorubicin (0.2 μM, 24 hours))?
**A.** enhanced

**Q.** And the “release of cytochrome c into cytoplasm” value ([10]; combined treatment with etoposide (25 μM, 24 hours))?
**A.** enhanced

**Q.** What about the “loss of mitochondrial membrane potential” value ([11]; combined treatment with doxorubicin) of the same substance?
**A.** significantly enhanced

**Q.** And the “loss of mitochondrial membrane potential” value ([11]; combined treatment with etoposide)?
**A.** significantly enhanced
